Consider 28 compounds from US20250332173A1, “COMPOUNDS AND METHODS FOR MODULATING NUCLEIC ACID SPLICING” (REMIX THERAPEUTICS INC., priority 2021, published 2025).

Where two headings read alike, the source gives them in different places.

The subject of test [1] is MYB mRNA. The experiment in a line: RT-qPCR splicing assay, MYB canonical junction (CJ) and alternative junction (AJ) mRNA. Particulars: Homo sapiens; for AC50: increase in MYB alternative junction (AJ) mRNA, read-out: MYB AJ AC50. The test is classed as cell-based, human. The method, boiled down:
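A673 or K562 cells were treated for 24 h at 37 °C with an 11-point 3-fold compound dilution series (top final concentration 10 uM, DMSO ≤0.25%). After lysis, one-step TaqMan RT-qPCR quantified junction transcripts, normalized to PPIA for A673 or to GAPDH/GUSB for K562.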

Test [2] deals with Target C. Description: RT-qPCR splicing assay panel, Target C canonical junction (CJ) mRNA. The test is classed as cell-based, human. Particulars: Homo sapiens; Table 5 panel; canonical junction qPCR; compound concentration having 50% response in CJ decrease; read-out: Target C IC50 (decrease in CJ mRNA levels). The method, boiled down:
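A673 or K562 cells were treated for 24 h at 37 °C with compound in 11-point 3-fold dilution (top 10 uM final, DMSO ≤0.25%). Lysates then went to one-step RT-qPCR measuring canonical-junction mRNA, normalized to GAPDH, GUSB or PPIA.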

The mark [3] stands for this setting: Table 5 panel, canonical junction qPCR, compound concentration having 50% response in CJ decrease, read-out: MYB IC50 (decrease in CJ mRNA levels).
[4] abbreviates: decrease in MYB canonical junction (CJ) mRNA, RT-qPCR, read-out: MYB CJ IC50.

Turning to `Cc1cn2cc(-c3cc(F)c4c(=O)n([C@H]5CCNC[C@@H]5F)cnc4c3)cc(F)c2n1` (relative stereo) [Compound 341, 5-fluoro-7-(8-fluoro-2-methylimidazo[1,2-a]pyridin-6-yl)-3-(trans-3-fluoropiperidin-4-yl)quinazolin-4(3H)-one], the IC50 was 100 to 1000 nM in test [1] (setting [3]), below 100 nM in test [1] (setting [4]) and 1000 to 10000 nM in test [2]. Also, the AC50 in test [1] (RT-qPCR) lay in the range of 100 to 1000 nM.
As for `Cc1cn2cc(-c3cc(F)c4c(=O)n([C@H]5CCN[C@@H](C)C5)cnc4c3)cc(F)c2n1` (relative stereo) [Compound 343, cis-5-fluoro-7-(8-fluoro-2-methylimidazo[1,2-a]pyridin-6-yl)-3-(2-methylpiperidin-4-yl)quinazolin-4(3H)-one], the IC50 in test [1] (setting [3]) is below 100 nM; in test [1] (setting [4]), below 100 nM; in test [2], 100 to 1000 nM. Moreover, the AC50 in test [1] (RT-qPCR) was below 100 nM.
As to `Cc1cn2nc(-c3cc(F)c4c(=O)n([C@H]5CCNC6(CC6)C5)cnc4c3)cc(C)c2n1` (single isomer, unassigned) [Compound 357], the half-maximal inhibitory concentration (IC50) in test [1] (setting [3]), in test [1] (setting [4]) and in test [2] was below 100 nM each time. The AC50 in test [1] (RT-qPCR) was below 100 nM.
Consider `CN1CCN(c2ccc3c(=O)n(-c4ccc5nn(C)cc5c4)cnc3c2)CC1` [Compound 152], for which the IC50 in test [1] (setting [3]), in test [1] (setting [4]) and in test [2] was above 10000 nM each time. In test [1] (RT-qPCR), the AC50 lay within 1000 to 10000 nM.
Consider `Cn1cc2cc(-n3cnc4cc(N5CCNCC5)ccc4c3=O)ccc2n1` [Compound 153], for which the results for the concentration for half-maximal inhibition (IC50) in test [1] (setting [3]) and in test [1] (setting [4]) were 1000 to 10000 nM and above 10000 nM, respectively. The concentration at half-maximal activity (AC50) in test [1] (RT-qPCR) is above 10000 nM.
In the case of `Cc1cc(-c2ccc3c(=O)n(C4CCN(C)CC4)cnc3c2)cc2cn(C)nc12` [Compound 156], the IC50 in test [1] (setting [3]) and in test [1] (setting [4]) was 1000 to 10000 nM throughout. Also, the AC50 in test [1] (RT-qPCR) was 1000 to 10000 nM.
For the compound `Cc1cc(-c2ccc3c(=O)n(C4CC(C)(C)NC(C)(C)C4)cnc3c2)cc2cn(C)nc12` [Compound 157], the IC50 in test [1] (setting [3]) and in test [1] (setting [4]) was 1000 to 10000 nM throughout. Besides, the AC50 in test [1] (RT-qPCR) lay in the range of 1000 to 10000 nM.
Consider `Cn1cc2cc(-n3cnc4cc(C5=CCNCC5)ccc4c3=O)ccc2n1` [Compound 158], for which the IC50 in test [1] (setting [3]) and in test [1] (setting [4]) was above 10000 nM throughout. Moreover, the AC50 in test [1] (RT-qPCR) is above 10000 nM.
Take `CN1CC=C(c2ccc3c(=O)n(-c4ccc5nn(C)cc5c4)cnc3c2)CC1` [Compound 159]: the 50% inhibitory concentration (IC50) in test [1] (setting [3]) and in test [1] (setting [4]) was above 10000 nM each time. Moreover, the AC50 in test [1] (RT-qPCR) was above 10000 nM.
For `CCN1CCC(n2ncc3cc(-c4cc(C)c5nc(C)cn5n4)ccc3c2=O)CC1` [Compound 266], the IC50 in test [1] (setting [3]) is 100 to 1000 nM; in test [1] (setting [4]), below 100 nM; in test [2], 100 to 1000 nM. Further, the AC50 in test [1] (RT-qPCR) was in the range of 100 to 1000 nM.
For the compound `Cc1cn2nc(-c3ccc4c(c3)CCN(C3CCNC(C)(C)C3)C4=O)cc(C)c2n1` (centres unmarked) [Compound 267], the concentration for half-maximal inhibition (IC50) in test [1] (setting [3]) is 1000 to 10000 nM; in test [1] (setting [4]), below 100 nM; in test [2], 1000 to 10000 nM. The AC50 in test [1] (RT-qPCR) is 1000 to 10000 nM.
As for `Cc1cn2nc(-c3ccc4c(c3)CCN(C3CCN(C)CC3)C4=O)cc(C)c2n1` [Compound 268], the IC50 was 1000 to 10000 nM in test [1] (setting [3]), 100 to 1000 nM in test [1] (setting [4]) and above 10000 nM in test [2]. Besides, in test [1] (RT-qPCR), the AC50 lay within 1000 to 10000 nM.
Consider `Cc1cn2nc(-c3ccc4c(c3)CCN(C3CCNC3)C4=O)cc(C)c2n1` (centres unmarked) [Compound 269], for which the IC50 in test [1] (setting [3]), in test [1] (setting [4]) and in test [2] was above 10000 nM in each case. Also, in test [1] (RT-qPCR), the AC50 is above 10000 nM.
On to `CCN1CCC(N2CCc3cc(-c4cc(C)c5nc(C)cn5n4)ccc3C2=O)CC1` [Compound 270], for which the values for the IC50 in test [1] (setting [3]), in test [1] (setting [4]) and in test [2] were 1000 to 10000 nM, 1000 to 10000 nM and above 10000 nM, respectively. Moreover, in test [1] (RT-qPCR), the concentration at half-maximal activity (AC50) fell in the range of 1000 to 10000 nM.
For the compound `Cc1cn2nc(-c3ccc4c(=O)n(C5CCN(C)C5)ncc4c3)cc(C)c2n1` (centres unmarked) [Compound 271], the IC50 in test [1] (setting [3]), in test [1] (setting [4]) and in test [2] was 1000 to 10000 nM in each case. The AC50 in test [1] (RT-qPCR) lay in the range of 1000 to 10000 nM.
Regarding `Cc1cn2nc(-c3ccc4c(=O)n([C@@H]5CCN[C@H](C)C5)ncc4c3)cc(C)c2n1` [Compound 272], the IC50 in test [1] (setting [3]) is below 100 nM; in test [1] (setting [4]) it was 100 to 1000 nM; in test [2], 100 to 1000 nM. Moreover, the AC50 in test [1] (RT-qPCR) is below 100 nM.
As for `Cc1cn2nc(-c3ccc4c(=O)n(C5CCNC6(CC6)C5)ncc4c3)cc(C)c2n1` (centres unmarked) [Compound 274], the IC50 in test [1] (setting [3]), in test [1] (setting [4]) and in test [2] was below 100 nM each time. For the same compound, the AC50 in test [1] (RT-qPCR) was below 100 nM.
For the compound `Cc1cn2cc(-c3ccc4c(=O)n(C5CCNCC5)ccc4c3)cc(F)c2n1` [Compound 276], the concentration for half-maximal inhibition (IC50) in test [1] (setting [3]), in test [1] (setting [4]) and in test [2] was below 100 nM in each case. Also, the AC50 in test [1] (RT-qPCR) is below 100 nM.
For `Cc1cn2nc(-c3ccc4c(=O)n([C@@H]5CCN(C)[C@H](C)C5)ncc4c3)cc(C)c2n1` [Compound 277], the half-inhibitory concentration (IC50) in test [1] (setting [3]) was in the range of 100 to 1000 nM; in test [1] (setting [4]), 100 to 1000 nM; in test [2], 1000 to 10000 nM. For the same compound, the AC50 in test [1] (RT-qPCR) fell in the range of 100 to 1000 nM.
Consider `Cc1cn2nc(-c3ccc4c(=O)n([C@H]5CCN(C)[C@H](C)C5)ncc4c3)cc(C)c2n1` [Compound 278], for which the IC50 in test [1] (setting [3]), in test [1] (setting [4]) and in test [2] was 100 to 1000 nM throughout. The AC50 in test [1] (RT-qPCR) lay within 100 to 1000 nM.
For `Cc1cn2nc(-c3ccc4c(=O)n(C5CCNC(C)(C)C5)ncc4c3)cc(C)c2n1` (centres unmarked) [Compound 279], the values for the IC50 in test [1] (setting [3]), in test [1] (setting [4]) and in test [2] were below 100 nM, 100 to 1000 nM and 100 to 1000 nM, respectively. Further, the AC50 in test [1] (RT-qPCR) was below 100 nM.
Regarding `Cc1cn2nc(-c3ccc4c(=O)n([C@@H]5C[C@H]6CC[C@@H](C5)N6)ncc4c3)cc(C)c2n1` [Compound 280], the IC50 in test [1] (setting [3]) fell in the range of 100 to 1000 nM; in test [1] (setting [4]), 100 to 1000 nM; in test [2] it was 1000 to 10000 nM. In addition, the AC50 in test [1] (RT-qPCR) lay within 100 to 1000 nM.
On to `Cc1cn2nc(-c3ccc4c(c3)CCN([C@@H]3CCN[C@H](C)C3)C4=O)cc(C)c2n1` [Compound 281], for which the IC50 in test [1] (setting [3]), in test [1] (setting [4]) and in test [2] was 1000 to 10000 nM in each case. Also, in test [1] (RT-qPCR), the AC50 was 1000 to 10000 nM.
Consider `Cc1cn2nc(-c3ccc4c(c3)CCN(C3CCN(C)C3)C4=O)cc(C)c2n1` (centres unmarked) [Compound 282], for which the IC50 in test [1] (setting [3]), in test [1] (setting [4]) and in test [2] was above 10000 nM in each case. The AC50 in test [1] (RT-qPCR) is above 10000 nM.
Consider `Cc1cn2nc(-c3ccc4c(=O)n(C5CCCNCC5)ncc4c3)cc(C)c2n1` (centres unmarked) [Compound 283], for which the concentration for half-maximal inhibition (IC50) in test [1] (setting [3]), in test [1] (setting [4]) and in test [2] was 100 to 1000 nM throughout. The AC50 in test [1] (RT-qPCR) lay in the range of 100 to 1000 nM.
Regarding `O=c1c2ccc(-c3cn[nH]c3)cc2ncn1C1CCNCC1` [Compound 284], the IC50 in test [1] (setting [3]), in test [1] (setting [4]) and in test [2] was above 10000 nM in each case. The concentration at half-maximal activity (AC50) in test [1] (RT-qPCR) is above 10000 nM.
In the case of `Cc1nc2c(F)cc(-c3ccc4c(=O)n(C5CCNCC5)cnc4c3)cc2s1` [Compound 285], the IC50 in test [1] (setting [3]) was 100 to 1000 nM; in test [1] (setting [4]) it was 1000 to 10000 nM; in test [2], above 10000 nM. In addition, the AC50 in test [1] (RT-qPCR) is 100 to 1000 nM.
`Cc1cn2cc(-c3ccc4c(=O)n(C5CCNCC5)cnc4c3)nc2c(C)n1` [Compound 286]: the half-inhibitory concentration (IC50) in test [1] (setting [3]), in test [1] (setting [4]) and in test [2] was 1000 to 10000 nM in each case. Moreover, the AC50 in test [1] (RT-qPCR) is 1000 to 10000 nM.
